Reference: ChEMBL document CHEMBL1122538, “Functional group contributions to drug-receptor interactions” (J Med Chem, 1984)

experiment: Binding energy by using the equation deltaG obsd = -RT ln KD; format: ADME

Going from O=C1CC(=O)N([C@@H]2O[C@H](COP(=O)(O)O)[C@@H](O)[C@H]2O)C(=O)N1 to Nc1ccn([C@@H]2O[C@H](COP(=O)(O)O)[C@@H](O)[C@H]2O)c(=O)n1, the Binding energy falls from 15.1 kcal/mol to 5.9 kcal/mol.

First: O=P(O)(O)O[C@H]1OC[C@@H](O)[C@H](O)[C@H]1O
Second: O=P(O)(O)OC[C@H]1O[C@](O)(CO)[C@@H](O)[C@@H]1O
The Binding energy of the first is higher: 6.2 kcal/mol for the first, 5.7 kcal/mol for the second.

Compared with NC(CO)Cc1ccccc1 (centres undefined), CC(N)Cc1ccccc1 (centres undefined) [AMPHETAMINE] is lower in Binding energy: 7.1 kcal/mol for the first, 6.8 kcal/mol for the second.

First: COc1cccc(OC)c1OCCNCC1COc2ccccc2O1 (centres undefined)
Second: CNC(=O)Oc1cccc2ccccc12 [CARBARIL]
The Binding energy of the first is higher: 12.9 kcal/mol for the first, 6.4 kcal/mol for the second.

Going from NC(=O)C(N)Cc1ccccc1 (centres undefined) to O=C(O)C(Cc1ccccc1)OP(=O)(O)O (centres undefined), the Binding energy rises from 6.1 kcal/mol to 9.3 kcal/mol.

Compared with O=P(O)(O)C#CCCO, O=P(O)(O)CCCCO is lower in Binding energy: 3.4 kcal/mol for the first, 3.3 kcal/mol for the second.

First: CCc1nc(N)nc(N)c1C12CC3CC(CC(C3)C1)C2
Second: CC(C)Cc1cnc2nc(N)nc(N)c2n1
The Binding energy of the first is higher: 13.4 kcal/mol for the first, 12.3 kcal/mol for the second.

Compared with CCC(C)CN (centres undefined), CCN [ETHYLAMINE] is lower in Binding energy: 2.8 kcal/mol for the first, 2.2 kcal/mol for the second.

First: Cc1c(O)oc2ccccc2c1=O
Second: O=c1oc2ccccc2c(O)c1Cc1c(O)c2ccccc2oc1=O [DICUMAROL]
The Binding energy of the first is lower: 7 kcal/mol for the first, 8.8 kcal/mol for the second.

First: O=C(O)c1ccc(C(=O)O)c(C(=O)O)c1
Second: O=C(O)CC(O)(CC(=O)O)C(=O)O [CITRIC ACID]
The Binding energy of the first is higher: 5.2 kcal/mol for the first, 5 kcal/mol for the second.

First: C=C(C)[C@@H]1[C@H]2OC(=O)[C@@H]1[C@]1(O)[C@H]3O[C@H]3[C@]3(CO3)[C@]1(C)[C@@H]2O
Second: C[C@@H]1C[C@H]2[C@@H]3CCC4=CC(=O)C=C[C@]4(C)[C@@]3(F)[C@@H](O)C[C@]2(C)[C@@]1(O)C(=O)CO [DEXAMETHASONE]
The Binding energy of the first is lower: 8.8 kcal/mol for the first, 10.9 kcal/mol for the second.

Going from COC1C2CCN(CC3CC3)C1Cc1ccc(O)cc12 (centres undefined) to C[C@]12CC[C@@H]3c4ccc(O)cc4CC[C@H]3[C@@H]1CC[C@@H]2O [ESTRADIOL], the Binding energy rises from 12.2 kcal/mol to 13.2 kcal/mol.

Compared with O=C1CCN([C@H]2C[C@H](O)[C@@H](COP(=O)(O)O)O2)C(=O)N1, O=P(O)(O)OC[C@H]1OC(O)(COP(=O)(O)O)[C@@H](O)[C@@H]1O (some centres undefined) [FOSFRUCTOSE] is lower in Binding energy: 10.9 kcal/mol for the first, 10.2 kcal/mol for the second.

Going from Cc1ncc(CO)c(CN[C@@H](C)C(=O)O)c1O to CC(C(=O)O)c1ccc(-c2ccccc2)c(F)c1 (centres undefined) [FLURBIPROFEN], the Binding energy falls from 9.2 kcal/mol to 9.1 kcal/mol.

First: O=C(O)CC(CC(=O)CP(=O)(O)O)C(=O)O (centres undefined)
Second: O=C(O)C(COP(=O)(O)O)[C@H](O)[C@H](O)COP(=O)(O)O (some centres undefined)
The Binding energy of the first is higher: 10.9 kcal/mol for the first, 8.2 kcal/mol for the second.

Going from N/C=C(\OP(=O)(O)O)C(=O)O to O=C(NO)C(O)P(=O)(O)O (centres undefined), the Binding energy rises from 10.5 kcal/mol to 10.9 kcal/mol.

Compared with Cc1c(Cc2ccc(Cl)cc2)cnc2nc(N)nc(N)c12, Nc1nc(N)c2nc(Cc3ccccc3)cnc2n1 is lower in Binding energy: 13.2 kcal/mol for the first, 12.3 kcal/mol for the second.

Going from CO/C=C/C(N)C(=O)O (centres undefined) to CC(=O)O [ACETIC ACID], the Binding energy falls from 5.9 kcal/mol to 3.1 kcal/mol.

Going from O=C(O)Cc1ccccc1Oc1ccc(Cl)c(O)c1Cl to O=C(O)Cc1ccccc1Oc1ccc(Cl)cc1Cl [FENCLOFENAC], the Binding energy rises from 8.7 kcal/mol to 9.2 kcal/mol.

Going from O=P(O)(O)/C=C/CCO to CC(=O)CC(=O)C(=O)O, the Binding energy rises from 4.1 kcal/mol to 9.1 kcal/mol.

First: CCCCCc1ccc2nc(N)nc(N)c2c1C
Second: CN(C)CCc1c[nH]c2ccc(O)cc12 [BUFOTENINE]
The Binding energy of the first is higher: 18.7 kcal/mol for the first, 9.4 kcal/mol for the second.

Compared with CCC1(CC=C2CCCCC2)C(=O)NC(=O)NC1=O, C[C@]12CCC(=O)C=C1CC[C@@H]1[C@@H]2[C@@H](O)C[C@]2(C=O)[C@@H](C(=O)CO)CC[C@@H]12 [ALDOSTERONE] is higher in Binding energy: 8.4 kcal/mol for the first, 12.7 kcal/mol for the second.

Compared with CC(=O)OC(Cc1ccc(C=O)cc1)c1ccc(C=O)cc1 (centres undefined), Clc1ccc(C(c2ccc(Cl)cc2)C(Cl)(Cl)Cl)cc1 [CHLOROPHENOTHANE] is higher in Binding energy: 6.4 kcal/mol for the first, 7.6 kcal/mol for the second.

Compared with C=C1CC[C@H](O)C/C1=C/C=C1\CCC[C@]2(C)[C@@H]([C@H](C)CCC(O)C(C)(C)O)CC[C@@H]12 (some centres undefined), CO[C@]12CC[C@@]3(C[C@@H]1[C@](C)(O)C(C)(C)C)[C@H]1Cc4ccc(O)c5c4[C@@]3(CCN1CC1CC1)[C@H]2O5 [BUPRENORPHINE] is higher in Binding energy: 13.2 kcal/mol for the first, 13.4 kcal/mol for the second.

Going from C[C@]12CCC(=O)C[C@@H]1CC[C@@H]1[C@@H]2CC[C@]2(C)[C@@H](O)CC[C@@H]12 (stereo in doubt) [STANOLONE] to C[C@]12C[C@H](O)[C@H]3[C@@H](CCC4=CC(=O)CC[C@@]43C)[C@@H]1CC[C@@H]2C(=O)CO [CORTICOSTERONE], the Binding energy rises from 6.8 kcal/mol to 11.6 kcal/mol.

Going from C[C@]12CCC(=O)C[C@@H]1CC[C@@H]1[C@@H]2CC[C@]2(C)[C@@H](O)CC[C@@H]12 (stereo in doubt; 155) [STANOLONE] to CC12CCC(CC1=O)C2(C)C (centres undefined) [CAMPHOR], the Binding energy falls from 13.1 kcal/mol to 11.4 kcal/mol.

Going from CC(=O)OCC[N+](C)(C)C [ACETYLCHOLINE] to C[N+](C)(C)CCOC(N)=O.[Cl-] [CARBACHOL], the Binding energy falls from 11.1 kcal/mol to 10.7 kcal/mol.

Going from Oc1ncnc2[nH]ncc12 [ALLOPURINOL] to Nc1ncnc2c1ncn2[C@@H]1O[C@H](CO)C[C@H]1O [CORDYCEPIN], the Binding energy falls from 12.5 kcal/mol to 8.2 kcal/mol.

Compared with C=CCc1ccccc1OCC(O)CNC(C)C (centres undefined) [ALPRENOLOL], CN(C)CCCN1c2ccccc2Sc2ccc(Cl)cc21 [CHLORPROMAZINE] is lower in Binding energy: 12.9 kcal/mol for the first, 12.3 kcal/mol for the second.

Going from CCCCC[C@H](O)/C=C/[C@H]1[C@H](O)CC(=O)[C@@H]1CCCCCCC(=O)O [ALPROSTADIL] to CCCCC[C@H](O)/C=C/[C@H]1[C@H](O)CC(=O)[C@@H]1C/C=C\CCCC(=O)O [DINOPROSTONE], the Binding energy rises from 11.2 kcal/mol to 11.5 kcal/mol.

Going from CN(C)CCC=C1c2ccccc2CCc2ccccc21 [AMITRIPTYLINE] to CN(C)CCC=C1c2ccccc2COc2ccccc21 [DOXEPIN], the Binding energy rises from 12.3 kcal/mol to 13.1 kcal/mol.

First: CN1CCc2cccc3c2[C@H]1Cc1ccc(O)c(O)c1-3 [APOMORPHINE]
Second: CN1CCC(=C2c3ccccc3Oc3ccc(Cl)cc32)CC1 [CLOPIPAZAN]
The Binding energy of the first is lower: 11.9 kcal/mol for the first, 12.8 kcal/mol for the second.

Going from Nc1cc(Cl)c(N=C2NCCN2)c(Cl)c1 [APRACLONIDINE] to Clc1cccc(Cl)c1N=C1NCCN1 [CLONIDINE], the Binding energy falls from 12.7 kcal/mol to 12.3 kcal/mol.

Going from COC(=O)C1=CCCN(C)C1 [ARECOLINE] to CNC(=O)Oc1cccc2c1OC(C)(C)C2 [CARBOFURAN], the Binding energy falls from 7.2 kcal/mol to 4.6 kcal/mol.

Compared with COc1ccc(CCN2CCC(Nc3nc4ccccc4n3Cc3ccc(F)cc3)CC2)cc1 [ASTEMIZOLE], O=C(CCCN1CCC(n2c(O)nc3ccccc32)CC1)c1ccc(F)cc1 [BENPERIDOL] is higher in Binding energy: 11.3 kcal/mol for the first, 12.2 kcal/mol for the second.

First: CN1[C@@H]2CC[C@H]1C[C@@H](OC(=O)C(CO)c1ccccc1)C2 (some centres undefined) [ATROPINE]
Second: CN1[C@@H]2CC[C@H]1C[C@@H](OC(c1ccccc1)c1ccccc1)C2 [BENZTROPINE]
The Binding energy of the first is higher: 12.8 kcal/mol for the first, 12.6 kcal/mol for the second.

First: O=C1CCC(c2ccccc2)(C2CCN(Cc3ccccc3)CC2)C(=O)N1 (centres undefined) [BENZETIMIDE]
Second: O=c1[nH]c2ccccc2n1CCCN1CCC(n2c(=O)[nH]c3cc(Cl)ccc32)CC1 [DOMPERIDONE]
The Binding energy of the first is lower: 12 kcal/mol for the first, 13.8 kcal/mol for the second.

First: O=C(O)CCCC[C@@H]1SC[C@@H]2NC(=O)N[C@@H]21 [BIOTIN]
Second: CCCCC[C@H](O)/C=C/[C@@H]1[C@@H](C/C=C\CCCC(=O)O)[C@@H](O)C[C@H]1O [DINOPROST]
The Binding energy of the first is higher: 20.5 kcal/mol for the first, 9.2 kcal/mol for the second.

Going from O=C1CN=C(c2ccccn2)c2cc(Br)ccc2N1 [BROMAZEPAM] to CN1C(=O)CN=C(c2ccccc2)c2cc(Cl)ccc21 [DIAZEPAM], the Binding energy rises from 10.3 kcal/mol to 11.5 kcal/mol.

First: NC(=O)N1c2ccccc2C=Cc2ccccc21 [CARBAMAZEPINE]
Second: CN1CCC(=C2c3ccccc3C=Cc3ccccc32)CC1 [CYPROHEPTADINE]
The Binding energy of the first is lower: 5.9 kcal/mol for the first, 12.8 kcal/mol for the second.

Going from CN(C)CCOC(c1ccc(Cl)cc1)c1ccccn1 (centres undefined) [CARBINOXAMINE] to CN(C)CCC(c1ccc(Cl)cc1)c1ccccn1 (centres undefined) [CHLORPHENIRAMINE], the Binding energy rises from 12.3 kcal/mol to 12.8 kcal/mol.

Compared with C(=C\c1ccccc1)/CN1CCN(C(c2ccccc2)c2ccccc2)CC1 [CINNARIZINE], O=C1NCN(c2ccccc2)C12CCN(CCCC(c1ccc(F)cc1)c1ccc(F)cc1)CC2 [FLUSPIRILENE] is higher in Binding energy: 8.4 kcal/mol for the first, 11.6 kcal/mol for the second.

Compared with CN1CCN(C2=Nc3cc(Cl)ccc3Nc3ccccc32)CC1 [CLOZAPINE], CNCCCN1c2ccccc2CCc2ccccc21 [DESIPRAMINE] is lower in Binding energy: 12.3 kcal/mol for the first, 12.2 kcal/mol for the second.

Compared with OC[C@H]1O[C@@H](n2cnc3c2N=CNC[C@H]3O)[C@H](O)[C@@H]1O [COFORMYCIN], OC[C@H]1OC(O)[C@H](O)[C@@H](O)[C@@H]1O (some centres undefined) [DEXTROSE] is lower in Binding energy: 15 kcal/mol for the first, 8.7 kcal/mol for the second.

Compared with NC1(C(=O)O)CCCC1 [CYCLOLEUCINE], O=c1cccc2n1C[C@@H]1CNC[C@H]2C1 [CYTISINICLINE] is higher in Binding energy: 4.9 kcal/mol for the first, 12.1 kcal/mol for the second.

Compared with O=C(O)Cc1ccccc1Nc1c(Cl)cccc1Cl [DICLOFENAC], NCCc1ccc(O)c(O)c1 [DOPAMINE] is higher in Binding energy: 9.6 kcal/mol for the first, 11.8 kcal/mol for the second.

First: ClC1=C(Cl)[C@]2(Cl)[C@@H]3[C@@H]4C[C@@H]([C@H]5O[C@@H]45)[C@@H]3[C@@]1(Cl)C2(Cl)Cl [DIELDRIN]
Second: Cc1ccc(F)cc1NC1=NCCN1 [FLUTONIDINE]
The Binding energy of the first is lower: 6.1 kcal/mol for the first, 11.4 kcal/mol for the second.
